Measurements: paper PMC4077311, “A Huge PVDF Adsorption Difference Between Resveratrol and ε-Viniferin Allows to Quantitatively Purify Them and to Assess Their Anti-Tyrosinase Property” (Chromatographia, 2014)

Target: Mushroom tyrosinase (Agaricus bisporus, UniProt C7FF04)
Test: Tyrosinase L-DOPA oxidase inhibition activity
Experimental: Then, 40 μL L-DOPA (2.5 mM) and 80 μL phosphate buffer were added to the solution. Optical density (OD) of each assay, relative to the control, was measured at 492 nm by using a microplate reader (Tecan® Infinite M200 spectrophotometer).
Results expression: Inhibition of enzyme activity by each sample is expressed as % inhibition compared to the control and represented by the following equation: [1 − (ODsample × ODcontrol^−1)] × 100.

Chain of Mushroom tyrosinase (G1K3P4 entry or part of it): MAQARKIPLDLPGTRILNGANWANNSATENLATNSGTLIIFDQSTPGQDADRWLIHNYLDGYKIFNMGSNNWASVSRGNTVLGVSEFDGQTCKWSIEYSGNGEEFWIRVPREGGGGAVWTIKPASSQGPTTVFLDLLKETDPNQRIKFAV
Chain of Mushroom tyrosinase (C7FF04 1-392): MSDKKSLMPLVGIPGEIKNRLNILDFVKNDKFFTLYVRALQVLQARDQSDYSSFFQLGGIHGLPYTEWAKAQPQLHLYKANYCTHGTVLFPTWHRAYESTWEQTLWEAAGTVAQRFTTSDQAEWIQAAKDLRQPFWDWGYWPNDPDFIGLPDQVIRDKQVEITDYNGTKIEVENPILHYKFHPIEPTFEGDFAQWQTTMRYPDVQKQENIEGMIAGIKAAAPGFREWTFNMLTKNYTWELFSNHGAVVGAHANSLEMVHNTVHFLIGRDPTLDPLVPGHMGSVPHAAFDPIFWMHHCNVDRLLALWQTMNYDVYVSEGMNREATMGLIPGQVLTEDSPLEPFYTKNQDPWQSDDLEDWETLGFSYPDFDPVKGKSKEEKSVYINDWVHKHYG

| Structure (SMILES) | Tyrosinase inhibitory activity in words |
| --- | --- |
| Oc1ccc(C=Cc2cc(O)cc3c2[C@H](c2cc(O)cc(O)c2)[C@@H](c2ccc(O)cc2)O3)cc1 [trans-ε-Viniferin 2, 5-[(2S, 3S)-6-hydroxy-2-(4-hydroxyphenyl)-4-(4-hydroxystyryl)-2,3-dihydrobenzofuran-3-yl]benzene-1,3-diol] | the most active tyrosinase inhibitor ever tested by us |
| Oc1ccc(/C=C/c2cc(O)cc(O)c2)cc1 [trans-Resveratrol 1, (E)-5-(4-hydroxystyryl)benzene-1,3-diol] | moderate inhibitory activity |
